According to US20250195521A1 (Revolution Medicines, Inc., priority 2020, published 2025):
Where “and” joins values, the source holds several entries; their conditions need not be identical. Identical values can stand only once. Like-named read-outs stand apart in the source and are kept apart here.

Tests used:
[1] = tested on: Capan-1 cells (K-Ras G12V); test: CellTiter-Glo cell viability, Capan-1; assay type: cell-based, human; conditions: K-Ras G12V, 5-day treatment, read-out: Capan-1 Cell Viability IC50
In short: (§1)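 Viability is read as luminescence after five days of compound exposure, with plates first equilibrated to room temperature for roughly 30 minutes. Each signal is expressed as a percentage of the mean DMSO control, and curves are fitted by four-parameter logistic regression.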

[2] = tested on: NCI-H358 (K-Ras G12C); test: CellTiter-Glo cell viability assay, NCI-H358; assay type: cell-based, human; conditions: 5-day treatment, read-out: H358 Cell Viability assay data (K-Ras G12C, IC50)
In short: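 Viability is measured as ATP-dependent luminescence (CellTiter-Glo) five days into compound treatment. Responses are normalized to vehicle (DMSO) wells and fitted by four-parameter logistic regression.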

[3] = target: K-Ras G12C(GMP-PNP) binding to BRAF RBD (Homo sapiens (Human), UniProt P01116+P62937, G12C); test: Disruption of BRAF RBD interaction with K-Ras (FRET / MOA assay), K-Ras G12C; assay type: biochemical; conditions: read-out: KRAS G12C FRET IC50
In short: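 First, test compounds in a 10-point 3-fold series (30 μM final top) were incubated for 3 hours at 25° C with nucleotide-loaded Ras, cyclophilin A and a BRAF RBD construct. Next, Eu anti-His and allophycocyanin anti-GST detection reagents were added for 1.5 hours. Finally, IC50s were derived from loss of TR-FRET signal against DMSO.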

[4] = target: KRAS G12C (Homo sapiens (Human), UniProt P01116+P62937, G12C); test: Ras-Raf disruption/FRET/MOA assay (BRAF RBD, Cyclophilin A); assay type: biochemical; conditions: read-out: KRAS G12C FRET IC50
In short: (§2)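 His6-K-Ras-GMPPNP (12.5 nM), GST-BRAF RBD (50 nM) and tagless Cyclophilin A (25 μM) were combined in 25 mM HEPES pH 7.3 with 100 mM NaCl, 5 mM MgCl2, 0.1% BSA and 0.002% Tween20, with compound as a 10-point 3-fold series from 30 μM final, then incubated 3 h at 25° C.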

[5] = target: KRAS G13C (Homo sapiens (Human), UniProt P01116+P62937, G13C); test: as above; assay type: biochemical; conditions: read-out: KRAS G13C FRET IC50
In short: as §2

[6] = target: KRAS G12S (Homo sapiens (Human), UniProt P01116+P62937, G12S); test: as above; assay type: biochemical; conditions: read-out: KRAS G12S FRET IC50
In short: as §2

[7] = target: KRAS G12V (Homo sapiens (Human), UniProt P01116+P62937, G12V); test: as above; assay type: biochemical; conditions: read-out: KRAS G12V FRET IC50
In short: as §2

[8] = target: KRAS WT (Homo sapiens (Human), UniProt P01116+P62937); test: as above; assay type: biochemical; conditions: read-out: KRAS WT FRET data IC50
In short: as §2

[9] = target: KRAS G12D (Homo sapiens (Human), UniProt P01116+P62937, G12D); test: as above; assay type: biochemical; conditions: read-out: KRAS G12D FRET IC50
In short: as §2

[10] = target: KRAS G13D (Homo sapiens (Human), UniProt P01116+P62937, G13D); test: as above; assay type: biochemical; conditions: read-out: KRAS G13D FRET data IC50
In short: as §2

[11] = target: NRAS G12C (Homo sapiens (Human), UniProt P01111+P62937, G12C); test: as above; assay type: biochemical; conditions: read-out: NRAS G12C FRET data IC50
In short: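 Measured: compound-facilitated Cyclophilin A:Ras complex blocking RAF RBD binding. Conditions: 12.5 nM Ras-GMPPNP, 50 nM BRAF RBD, 25 μM CypA, 3 h plus 1.5 h detection. Output: IC50 from TR-FRET ratio.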

[12] = tested on: NCI-H358 cells (K-Ras G12C); test: CellTiter-Glo cell viability, NCI-H358; assay type: cell-based, human; conditions: K-Ras G12C, 5-day treatment, read-out: H358 Cell Viability IC50
In short: as §1

[13] = tested on: K-Ras G12C (NCI-H358 cells); test: Potency assay: pERK in NCI-H358 cells; assay type: cell-based, human; conditions: NCI-H358 cells, 4 hours, read-out: pERK EC50 (H358 KRAS G12C)
In short: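 Cells plated the day before were exposed for 4 h at 37° C, 5% CO2 to a 10-point, 3-fold DMSO dilution series (10 mM top stock), in duplicate. Phospho-ERK was read by AlphaLISA SureFire Ultra or by In-Cell Western with DRAQ5 DNA stain, and IC50 came from a 4-parameter sigmoidal fit.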

Chain of K-Ras G12C(GMP-PNP) binding to BRAF RBD (P01116 other isoform, or with tags, fused parts or gaps G12C): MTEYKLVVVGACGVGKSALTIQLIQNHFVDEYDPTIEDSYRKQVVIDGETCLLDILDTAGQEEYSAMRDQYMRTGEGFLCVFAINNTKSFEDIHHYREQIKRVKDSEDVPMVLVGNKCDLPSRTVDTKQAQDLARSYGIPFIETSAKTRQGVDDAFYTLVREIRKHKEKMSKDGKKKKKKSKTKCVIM
Chain of K-Ras G12C(GMP-PNP) binding to BRAF RBD (P62937 whole entry): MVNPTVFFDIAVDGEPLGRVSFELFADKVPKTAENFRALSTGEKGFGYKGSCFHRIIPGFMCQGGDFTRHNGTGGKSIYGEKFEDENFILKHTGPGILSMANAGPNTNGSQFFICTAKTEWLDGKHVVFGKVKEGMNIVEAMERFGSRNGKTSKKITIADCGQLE
Chain of KRAS G12S (P01116 other isoform, or with tags, fused parts or gaps G12S): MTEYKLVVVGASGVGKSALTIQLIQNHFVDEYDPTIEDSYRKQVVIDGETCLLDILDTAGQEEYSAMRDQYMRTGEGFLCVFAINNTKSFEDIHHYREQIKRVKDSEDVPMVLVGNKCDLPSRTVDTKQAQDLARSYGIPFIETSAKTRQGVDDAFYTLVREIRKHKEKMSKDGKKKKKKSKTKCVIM
Chain of KRAS G12S (P62937 whole entry): as the sequence (P62937 whole entry) above
Chain of KRAS G13C (P01116 other isoform, or with tags, fused parts or gaps G13C): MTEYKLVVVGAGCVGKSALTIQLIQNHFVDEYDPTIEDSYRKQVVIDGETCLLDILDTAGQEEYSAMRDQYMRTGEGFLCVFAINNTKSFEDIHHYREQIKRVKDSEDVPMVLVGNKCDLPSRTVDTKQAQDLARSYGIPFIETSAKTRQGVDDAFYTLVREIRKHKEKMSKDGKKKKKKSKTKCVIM
Chain of KRAS G13C (P62937 whole entry): as the sequence (P62937 whole entry) above
Chain of KRAS G13D (P01116 other isoform, or with tags, fused parts or gaps G13D): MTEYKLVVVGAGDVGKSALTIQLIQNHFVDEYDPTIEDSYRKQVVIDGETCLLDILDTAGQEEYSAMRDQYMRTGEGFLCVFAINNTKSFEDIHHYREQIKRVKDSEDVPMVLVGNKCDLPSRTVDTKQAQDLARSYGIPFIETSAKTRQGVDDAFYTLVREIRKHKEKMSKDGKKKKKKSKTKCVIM
Chain of KRAS G13D (P62937 whole entry): as the sequence (P62937 whole entry) above
Chain of KRAS G12V (P01116 other isoform, or with tags, fused parts or gaps G12V): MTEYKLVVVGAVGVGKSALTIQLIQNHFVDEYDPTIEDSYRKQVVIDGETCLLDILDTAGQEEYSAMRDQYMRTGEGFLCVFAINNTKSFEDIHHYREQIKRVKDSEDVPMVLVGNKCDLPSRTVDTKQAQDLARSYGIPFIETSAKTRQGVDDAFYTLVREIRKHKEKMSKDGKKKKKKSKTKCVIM
Chain of KRAS G12V (P62937 whole entry): as the sequence (P62937 whole entry) above
Chain of KRAS WT (P01116 other isoform, or with tags, fused parts or gaps): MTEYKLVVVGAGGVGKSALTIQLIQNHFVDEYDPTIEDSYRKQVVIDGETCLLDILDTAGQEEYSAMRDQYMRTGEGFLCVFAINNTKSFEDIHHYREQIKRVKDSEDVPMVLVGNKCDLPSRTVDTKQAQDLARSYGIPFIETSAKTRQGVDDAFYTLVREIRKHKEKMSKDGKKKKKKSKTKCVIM
Chain of KRAS WT (P62937 whole entry): as the sequence (P62937 whole entry) above
Chain of KRAS G12C (P01116-2 other isoform, or with tags, fused parts or gaps G12C): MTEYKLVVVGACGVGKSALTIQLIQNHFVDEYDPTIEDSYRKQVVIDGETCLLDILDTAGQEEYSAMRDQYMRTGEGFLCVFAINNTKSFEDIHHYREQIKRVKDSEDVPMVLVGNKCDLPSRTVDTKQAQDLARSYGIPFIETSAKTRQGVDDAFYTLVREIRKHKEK
Chain of KRAS G12C (P62937 whole entry): as the sequence (P62937 whole entry) above
Chain of KRAS G12D (P01116 other isoform, or with tags, fused parts or gaps G12D): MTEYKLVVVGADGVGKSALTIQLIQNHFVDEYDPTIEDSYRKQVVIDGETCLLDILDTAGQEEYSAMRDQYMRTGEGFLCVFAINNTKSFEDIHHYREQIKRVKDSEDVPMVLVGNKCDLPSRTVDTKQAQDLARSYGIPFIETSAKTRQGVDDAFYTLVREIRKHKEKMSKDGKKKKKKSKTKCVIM
Chain of KRAS G12D (P62937 whole entry): as the sequence (P62937 whole entry) above
Chain of NRAS G12C (P01111 whole entry G12C): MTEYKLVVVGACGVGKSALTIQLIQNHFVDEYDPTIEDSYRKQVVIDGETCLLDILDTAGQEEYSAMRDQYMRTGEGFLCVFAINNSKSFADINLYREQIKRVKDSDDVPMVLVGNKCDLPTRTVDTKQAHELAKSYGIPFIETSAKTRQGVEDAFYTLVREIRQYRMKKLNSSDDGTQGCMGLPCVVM
Chain of NRAS G12C (P62937 whole entry): as the sequence (P62937 whole entry) above

Row | SMILES | IC50 ([2]; Homo sapiens, NCI-H358, 120 h) [nM] | IC50 [3] | IC50 [4] [nM] | IC50 [5] [nM] | IC50 [6] [nM] | IC50 [7] [nM] | IC50 [8] [nM] | IC50 [9] [nM] | IC50 [10] [nM] | IC50 [11] [nM] | IC50 ([12]; Homo sapiens, NCI-H358, 120 h) [nM] | EC50 ([13]; Homo sapiens) [nM] | IC50 ([1]; Homo sapiens, CAPAN-1, 120 h) [nM] | IC50 [1] [nM] | IC50 [2] [nM] | EC50 [13] [nM] | IC50 [12] [nM]
1 | CCn1c(-c2cccnc2[C@H](C)OC)c2c3cc(ccc31)-c1cc(O)cc(c1)C[C@H](NC(=O)[C@H](C(C)C)N(C)C(=O)[C@H]1C[C@@H]1F)C(=O)N1CCC[C@H](N1)C(=O)OCC(C)(C)C2 [Compound A161] | > 10000 | 100 to 1000 nM | 100 to 1000 | 100 to 1000 | 100 to 1000 | 100 to 1000 | 100 to 1000 | 100 to 1000 | 100 to 1000 | 100 to 1000 | 100 to 1000 | – | 100 to 1000 | – | – | – | –
2 | CCn1c(-c2cccnc2[C@H](C)OC)c2c3cc(ccc31)-c1csc(n1)C[C@H](NC(=O)[C@H]1[C@H](C)[C@@H]1C)C(=O)N1CCC[C@H](N1)C(=O)OCC(C)(C)C2 [Compound A227, (1R,2R,3S)—N-((6^3S,4S,Z)-1^1-ethyl-1^2-(2-((S)-1-methoxyethyl)pyridin-3-yl)-10,10-dimethyl-5,7-dioxo-6^1,6^2,6^3,6^4,6^5,6^6-hexahydro-1^1H-8-oxa-2 (4,2)-thiazola-1 (5,3)-indola-6 (1,3)-pyridazinacycloundecaphane-4-yl)-2,3-dimethylcyclopropane-1-carboxamide] | – | 100 to 1000 nM | – | 10 to 100 | – | – | – | – | – | – | – | – | – | > 10000 | 100 to 1000 | < 5000 | 1000 to 10000
3 | CCn1c(-c2cccnc2[C@H](C)OC)c2c3cc(ccc31)-c1csc(n1)C[C@H](NC(=O)[C@H](C(C)C)N(C)C(=O)N1C[C@H](C)N(C)C[C@@H]1C)C(=O)N1CCC[C@H](N1)C(=O)OCC(C)(C)C2 [Compound A283] | – | 10 to 100 nM and 1000 to 10000 nM | – | – | – | – | – | – | – | – | 100 to 1000 | < 5000 | 100 to 1000 | – | – | – | –

Continued, in another order:

Row | IC50 ([2]; Homo sapiens, NCI-H358, 120 h) [nM] | IC50 [3] | IC50 [4] [nM] | IC50 [5] [nM] | IC50 [6] [nM] | IC50 [7] [nM] | IC50 [8] [nM] | IC50 [9] [nM] | IC50 [10] [nM] | IC50 [11] [nM] | IC50 ([12]; Homo sapiens, NCI-H358, 120 h) [nM] | EC50 ([13]; Homo sapiens) [nM] | SMILES | IC50 ([1]; Homo sapiens, CAPAN-1, 120 h) [nM] | IC50 [1] [nM] | IC50 [2] [nM] | EC50 [13] [nM] | IC50 [12] [nM]
4 | 100 to 1000 | 10 to 100 nM | 10 to 100 | 10 to 100 | 10 to 100 | 10 to 100 | 10 to 100 | 10 to 100 | 10 to 100 | 10 to 100 | 10 to 100 | – | CCn1c(-c2cccnc2[C@H](C)OC)c2c3cc(ccc31)-c1cc(O)cc(c1)C[C@H](NC(=O)[C@H](C(C)C)N(C)C(=O)[C@@H]1[C@@H]3CNC[C@@H]31)C(=O)N1CCC[C@H](N1)C(=O)OCC(C)(C)C2 [Compound A164] | 100 to 1000 | – | – | – | –
5 | – | 100 to 1000 nM and 1000 to 10000 nM | 10 to 100 | 10 to 100 | 100 to 1000 | 1000 to 10000 | 10 to 100 | 100 to 1000 | 10 to 100 | 100 to 1000 | 1000 to 10000 | – | CCn1c(-c2cnccc2COC)c2c3cc(ccc31)-c1cc(O)cc(c1)C[C@H](NC(=O)[C@H](C(C)C)N(C)C(=O)[C@H]1CNC[C@H]1C(F)(F)F)C(=O)N1CCC[C@H](N1)C(=O)OCC(C)(C)C2 [Compound A216] | 1000 to 10000 | – | – | – | –
6 | > 10000 | > 10000 nM | 10 to 100 | 10 to 100 | 100 to 1000 | 100 to 1000 | 10 to 100 | 10 to 100 | 10 to 100 | 10 to 100 | 100 to 1000 | – | CCn1c(-c2cccnc2[C@H](C)OC)c2c3cc(ccc31)-c1cc(O)cc(c1)C[C@H](NC(=O)[C@H](C(C)C)N(C)C(=O)[C@H]1CN[C@@H]3CCO[C@H]13)C(=O)N1CCC[C@H](N1)C(=O)OCC(C)(C)C2 [Compound A231] | 1000 to 10000 | – | – | – | –
